The source of these data is PMC8138958 (ACS infectious diseases, 2021).

In one series the test system is E.coli ATCC 25922. The series is classed as cell-based, Escherichia coli. The note with it: compound alone; polymyxin-susceptible strain.
Another series deals with K.pneumonia ATCC 13882. The series is classed as cell-based, Klebsiella pneumoniae. The note with it: compound alone; polymyxin-susceptible strain.
In another series the test system is P.aeruginosa ATCC 27853. The series is classed as cell-based, Pseudomonas aeruginosa. The note with it: compound alone; polymyxin-susceptible strain.
In the next series the test system is A.baumannii NCTC 13301. The series is classed as cell-based, Acinetobacter baumannii. The settings on record: compound alone, polymyxin-susceptible strain.
The next series deals with A.baumannii BAA-747. Format: cell-based, Acinetobacter baumannii. The note with it: compound alone; polymyxin-susceptible strain.
A further series deals with E.coli IHMA940398. Format: cell-based, Escherichia coli. The settings on record: compound alone; reduced susceptibility to polymyxins.
Another series has as its system E. coli IHMA558090. Format: cell-based, Escherichia coli. The note with it: compound alone; reduced susceptibility to polymyxins.
The test system of another series is K. pneumoniae IHMA580884. Format: cell-based, Klebsiella pneumoniae. The note with it: compound alone; reduced susceptibility to polymyxins.
The subject of the next series is K.pneumoniae IHMA520329. The series is classed as cell-based, Klebsiella pneumoniae. The settings on record: compound alone; reduced susceptibility to polymyxins.
The subject of a further series is K.pneumoniae IHMA652780. Description: MIC by broth microdilution. The settings on record: compound alone; reduced susceptibility to polymyxins. The series is classed as cell-based, Klebsiella pneumoniae. (Dilution methods test growth across graded concentrations, often in twofold steps.)
In another series the test system is P.aeruginosa IHMA644636. The series is classed as cell-based, Pseudomonas aeruginosa. The settings on record: compound alone; reduced susceptibility to polymyxins.
In a further series the test system is P.aeruginosa IHMA517175. The series is classed as cell-based, Pseudomonas aeruginosa. The settings on record: compound alone; reduced susceptibility to polymyxins.
A further series deals with A.baumannii IHMA 517303. The series is classed as cell-based, Acinetobacter baumannii. The settings on record: compound alone; reduced susceptibility to polymyxins.
In the next series the test system is A.baumannii IHMA 851735. As to the kind of experiment: MIC by broth microdilution. Format: cell-based, Acinetobacter baumannii. The settings on record: compound alone; reduced susceptibility to polymyxins.
In the next series the test system is A. baumannii NCTC13301. As to the kind of experiment: Neutropenic mouse thigh efficacy model. The series is classed as in vivo, Acinetobacter baumannii. The note with it: same conditions (20mg/kg).
Series [1] in a line: In vivo nephrotoxicity, kidney histopathology and urinary biomarkers. Set-up: species or system male CD-1 mice.
A short description of series [2]: Plasma exposure in the renal toxicity study. The series is classed as in vivo. The settings on record: mouse, 25 mg/kg dose level.
A short description of series [3]: Determination of kidney drug levels. The series is classed as in vivo. The note with it: mouse, single 17.2 mg/kg subcutaneous dose, period 4-16 hr.
For series [4] the following is noted: mouse; cited from earlier work.
The conditions of series [5]: Cynomolgus monkey; cited from earlier work.

≈ marks a conversion by molar mass, not a printed value. Read-outs that look alike come from different tables or passages of the source. Marks after values point to notes of the source that are not given here. Where a SMILES comes first, the peptide text is derived from it. Bridges are numbered along the chain shown (N, C = ends). [ ]: non-standard residue; d: D form. The star is where a group is joined. X2 = NC[C@@H](CC(=O)*)c1cccc(Cl)c1; Dab = NCC[C@H](N)C(=O)O; Dap = NC[C@H](N)C(=O)O

Take Polymyxin B [1 (PMB)]: in the series with E.coli ATCC 25922, the “MIC E.coli ATCC 25922” value was found to be 0.25 µg/mL. Moreover, the “MIC K.pneumonia ATCC 13882” value with K.pneumonia ATCC 13882 stood at 0.25 µg/mL. Moreover, in the series with P.aeruginosa ATCC 27853, the “MIC P.aeruginosa ATCC 27853” value was 0.5 µg/mL. In addition, the “MIC A.baumannii NCTC 13301” value against A.baumannii NCTC 13301 and against A.baumannii NCTC 13301 (listed as PMB) was 0.25 µg/mL throughout. Moreover, the “MIC A.baumannii BAA-747” value in the series with A.baumannii BAA-747 came to 0.25 µg/mL. In addition, in the series with E.coli IHMA940398, the “MIC E.coli IHMA940398” value was determined as 16 µg/mL. In addition, the “MIC E. coli IHMA558090” value in the series on E. coli IHMA558090 was 4 µg/mL. Moreover, the “MIC K. pneumoniae IHMA580884” value in the series on K. pneumoniae IHMA580884 was determined as 8 µg/mL. Also, the “MIC K.pneumoniae IHMA520329” value with K.pneumoniae IHMA520329 is 64 µg/mL. Moreover, the “MIC K.pneumoniae IHMA652780” value with K.pneumoniae IHMA652780 was 4 µg/mL. Also, the “MIC P.aeruginosa IHMA644636” value with P.aeruginosa IHMA644636 came out at 32 µg/mL. Also, the “MIC P.aeruginosa IHMA517175” value in the series on P.aeruginosa IHMA517175 amounted to 8 µg/mL. The “MIC A.baumannii IHMA 517303” value with A.baumannii IHMA 517303 is >64 µg/mL. In the series on A.baumannii IHMA 851735, the “MIC A.baumannii IHMA 851735” value came to 4 µg/mL. Besides, in the series with A. baumannii NCTC13301, the “drop in colony forming units (CFU) from the pre-treatment level” value is reported as “greater than 2 log10”. Besides, the “Histopathology score – number of animals Normal” value in [1] (12.5 mg/kg, 24hr, n = 5) came to 5; in [1] (12.5 mg/kg, 4 days, n = 5), 4. The “Histopathology score – number of animals Minimal” value in [1] (12.5 mg/kg, 4 days, n = 5) is given as 1; in series [1] (25 mg/kg, 24hr, n = 5) it was 2; in series [1] (25 mg/kg, 4 days, n = 5), 2. Besides, in [1] (25 mg/kg, 24hr, n = 5), the “Histopathology score – number of animals Mild” value is listed as 2. In addition, the “Histopathology score – number of animals Moderate” value in series [1] (25 mg/kg, 24hr, n = 5) is reported as 1 ^*. For the same molecule, the kidney histopathology entry in [1] (mouse, 25 mg/kg sc three times per day, 24 hr and 4 day studies) is listed as “significant histopathology changes in the kidneys”. Besides, the “plasma AUCinf” value in [2] came out at 57000 ng·h/mL.
In the case of `CC(C)C[C@@H]1NC(=O)[C@@H](Cc2ccccc2)NC(=O)[C@H](CCN)NC(=O)[C@@H](NC(=O)[C@H](CN)NC(=O)[C@@H](NC(=O)C[C@H](CN)c2cccc(Cl)c2)[C@@H](C)O)CCNC(=O)[C@H]([C@@H](C)O)NC(=O)[C@H](CCN)NC(=O)[C@H](CCN)NC1=O` [Compound 26, SPR206] (X2-T[Dap][Dab][Dab][dF]L[Dab][Dab]T; lactam 3-C (inferred)), the “MIC E.coli ATCC 25922” value in the series with E.coli ATCC 25922 was determined as 0.125 µg/mL (≈ 0.109 µM). Besides, the “MIC K.pneumonia ATCC 13882” value against K.pneumonia ATCC 13882 amounted to 0.125 µg/mL (≈ 0.109 µM). In addition, in the series on P.aeruginosa ATCC 27853, the “MIC P.aeruginosa ATCC 27853” value was found to be 0.25 µg/mL (≈ 0.218 µM). Also, in the series with A.baumannii NCTC 13301, the “MIC A.baumannii NCTC 13301” value came out at 0.06 µg/mL (≈ 0.0524 µM). Further, the “MIC A.baumannii BAA-747” value in the series with A.baumannii BAA-747 was determined as 0.125 µg/mL (≈ 0.109 µM). Moreover, the “MIC E.coli IHMA940398” value with E.coli IHMA940398 was 32 µg/mL (≈ 28 µM). Also, the “MIC E. coli IHMA558090” value in the series on E. coli IHMA558090 was found to be 8 µg/mL (≈ 6.99 µM). The “MIC K. pneumoniae IHMA580884” value against K. pneumoniae IHMA580884 came to 16 µg/mL (≈ 14 µM). Also, the “MIC K.pneumoniae IHMA520329” value against K.pneumoniae IHMA520329 is 64 µg/mL (≈ 55.9 µM). Besides, the “MIC P.aeruginosa IHMA644636” value against P.aeruginosa IHMA644636 was 32 µg/mL (≈ 28 µM). Further, in the series on P.aeruginosa IHMA517175, the “MIC P.aeruginosa IHMA517175” value was 8 µg/mL (≈ 6.99 µM). Besides, the “MIC A.baumannii IHMA 517303” value against A.baumannii IHMA 517303 was >64 µg/mL. For the same molecule, in series [3], the “AUC in renal tissue” value was 850 µg·h/g. The “renal toxicity compared to PMB” value in [4] and in series [5] was “significantly reduced renal toxicity compared to PMB” in each case.
As for Colistin [2 (Colistin)], the “MIC E.coli ATCC 25922” value against E.coli ATCC 25922 amounted to 0.25 µg/mL. For the same molecule, the “MIC K.pneumonia ATCC 13882” value against K.pneumonia ATCC 13882 stood at 0.25 µg/mL. Further, in the series on P.aeruginosa ATCC 27853, the “MIC P.aeruginosa ATCC 27853” value stood at 1 µg/mL. In addition, in the series on A.baumannii NCTC 13301, the “MIC A.baumannii NCTC 13301” value stood at 0.5 µg/mL. In the series on A.baumannii BAA-747, the “MIC A.baumannii BAA-747” value worked out at 0.25 µg/mL. Besides, the “MIC E.coli IHMA940398” value against E.coli IHMA940398 is 16 µg/mL. Besides, the “MIC E. coli IHMA558090” value with E. coli IHMA558090 was found to be 4 µg/mL. For the same molecule, the “MIC K. pneumoniae IHMA580884” value in the series with K. pneumoniae IHMA580884 was 16 µg/mL. Moreover, the “MIC K.pneumoniae IHMA520329” value in the series on K.pneumoniae IHMA520329 was >64 µg/mL. For the same molecule, the “MIC P.aeruginosa IHMA644636” value against P.aeruginosa IHMA644636 is 32 µg/mL. In addition, the “MIC P.aeruginosa IHMA517175” value in the series with P.aeruginosa IHMA517175 turned out to be 64 µg/mL. Further, the “MIC A.baumannii IHMA 517303” value with A.baumannii IHMA 517303 is >64 µg/mL.
